Measured values: patent publication US20210070748A1, “INHIBITORS OF BRUTONS TYROSINE KINASE” (Pharmacyclics LLC, priority 2015, published 2021)

Columns and labels:
[1] = target: T1, ITK (Homo sapiens, UniProt Q08881); experiment: Inhibition of a panel of kinases, in vitro HotSpot kinase assay: ITK; assay type: biochemical; details: Table 13, A compounds; 1 μM ATP
T1 sequence (Q08881 1-620): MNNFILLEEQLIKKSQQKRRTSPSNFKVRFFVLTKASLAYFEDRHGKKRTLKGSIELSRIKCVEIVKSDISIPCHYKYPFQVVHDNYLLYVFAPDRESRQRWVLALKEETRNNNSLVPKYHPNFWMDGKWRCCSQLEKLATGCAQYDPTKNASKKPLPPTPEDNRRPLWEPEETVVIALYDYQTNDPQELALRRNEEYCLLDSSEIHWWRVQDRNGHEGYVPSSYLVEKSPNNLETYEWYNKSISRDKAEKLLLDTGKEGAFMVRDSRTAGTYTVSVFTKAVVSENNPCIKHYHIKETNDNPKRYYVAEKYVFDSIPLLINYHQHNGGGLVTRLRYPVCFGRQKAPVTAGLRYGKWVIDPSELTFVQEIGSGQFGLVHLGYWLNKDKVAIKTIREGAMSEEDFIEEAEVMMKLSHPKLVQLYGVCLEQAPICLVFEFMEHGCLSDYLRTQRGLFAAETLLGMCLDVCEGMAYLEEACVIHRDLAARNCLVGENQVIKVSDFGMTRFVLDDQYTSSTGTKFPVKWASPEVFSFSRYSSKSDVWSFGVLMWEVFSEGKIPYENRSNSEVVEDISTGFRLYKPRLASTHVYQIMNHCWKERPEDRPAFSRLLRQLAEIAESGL
Procedure: (§1) The degree of inhibition of a panel of kinases is determined using the in vitro HotSpot kinase assay (purified enzymes, ^33P-ATP, an appropriate substrate and 1 μM ATP).

[2] = target: T2, TEC (Homo sapiens, UniProt P42680); experiment: Inhibition of a panel of kinases, in vitro HotSpot kinase assay: TEC; assay type: biochemical; details: Table 13, A compounds; 1 μM ATP
T2 sequence (P42680 1-631): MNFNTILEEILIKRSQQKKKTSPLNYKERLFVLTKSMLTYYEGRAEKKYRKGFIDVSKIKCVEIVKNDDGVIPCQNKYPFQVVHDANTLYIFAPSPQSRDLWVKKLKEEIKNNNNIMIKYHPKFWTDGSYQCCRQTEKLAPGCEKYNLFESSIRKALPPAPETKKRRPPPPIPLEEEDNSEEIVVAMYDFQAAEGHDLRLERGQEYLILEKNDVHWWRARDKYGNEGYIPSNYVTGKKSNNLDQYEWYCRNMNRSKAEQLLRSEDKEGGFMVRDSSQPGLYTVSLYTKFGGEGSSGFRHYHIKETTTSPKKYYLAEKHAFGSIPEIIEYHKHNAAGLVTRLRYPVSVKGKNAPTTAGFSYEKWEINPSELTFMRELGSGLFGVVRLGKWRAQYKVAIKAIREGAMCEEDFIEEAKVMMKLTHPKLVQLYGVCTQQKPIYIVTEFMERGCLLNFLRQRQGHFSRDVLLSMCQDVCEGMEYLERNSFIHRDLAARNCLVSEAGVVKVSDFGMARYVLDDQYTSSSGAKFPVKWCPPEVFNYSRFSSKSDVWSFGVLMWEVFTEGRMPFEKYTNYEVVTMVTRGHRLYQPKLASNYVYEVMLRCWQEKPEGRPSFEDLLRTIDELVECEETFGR
Procedure: as §1

Compound	IC50 [1]	IC50 [2]
CN(C)C(=O)N[C@@H]1CCCN(c2cnc(C(N)=O)c(Nc3ccc(C4(C)CCN(C5CCCC5)CC4)cc3)n2)[C@@H]1CO [Example A-101, 3-{[4-(1-cyclopentyl-4-methylpiperidin-4-yl)phenyl]amino}-5-[(2S,3R)-3-[(dimethylcarbamoyl)amino]-2-(hydroxymethyl)piperidin-1-yl]pyrazine-2-carboxamide]	1000 to 10000 nM	100 to 1000 nM
C[C@@H]1[C@H](NC(=O)c2ccc(C3CC3)cc2F)CCCN1c1cnc(C(N)=O)c(Nc2ccc(CN3CCN(C)CC3)cc2)n1 [Example A-106, 5-[(2R,3R)-3-(4-cyclopropyl-2-fluorobenzamido)-2-methylpiperidin-1-yl]-3-({4-[(4-methylpiperazin-1-yl)meth-yl]phenyl}amino)pyrazine-2-carboxamide]	100 to 1000 nM	10 to 100 nM
Cc1cc(Nc2nc(N3CCC[C@@H](n4ccc5cc(C6CC6)ccc5c4=O)C3)cnc2C(N)=O)sn1 [Example A-107, 5-[(3R)-3-(6-cyclopropyl-1-oxo-1,2-dihydroisoquinolin-2-yl)piperidin-1-yl]-3-[(3-methyl-1,2-thiazol-5-yl)amino]pyrazine-2-carboxamide]	> 10000 nM	> 10000 nM
C[C@@H]1[C@H](NC(=O)c2ccc(C3CC3)cc2F)CCCN1c1cnc(C(N)=O)c(Nc2nc3c(s2)CN(C)CC3)n1 [Example A-108, 5-[(2R,3R)-3-(4-cyclopropyl-2-fluorobenzamido)-2-methylpiperidin-1-yl]-3-({5-methyl-4H,5H,6H,7H-[1,3]thiazolo[5,4-c]pyridin-2-yl}amino)pyrazine-2-carboxamide]	> 10000 nM	100 to 1000 nM
C[C@@H]1[C@H](NC(=O)c2ccc(C3CC3)cc2F)CCCN1c1cnc(C(N)=O)c(Nc2cnn(C)c2)n1 [Example A-110, 5-[(2R,3R)-3-(4-cyclopropyl-2-fluorobenzamido)-2-methylpiperidin-1-yl]-3-[(1-methyl-1H-pyrazol-4-yl)amino]pyrazine-2-carboxamide]	100 to 1000 nM	10 to 100 nM
CN1CCN(Cc2ccc(Nc3nc(N4CCC[C@@H](n5ccc6cc(C7CC7)ccc6c5=O)C4)cnc3C(N)=O)cc2)CC1 [Example A-111, 5-[(3R)-3-(6-cyclopropyl-1-oxo-1,2-dihydroisoquinolin-2-yl)piperidin-1-yl]-3-({4-[(4-methylpiperazin-1-yl)meth-yl]phenyl}amino)pyrazine-2-carboxamide]	100 to 1000 nM	10 to 100 nM
CN1CCN(C(=O)c2ccc(Nc3nc(N4CCC[C@@H](n5ccc6cc(C7CC7)ccc6c5=O)C4)cnc3C(N)=O)cc2)CC1 [Example A-115, 5-[(3R)-3-(6-cyclo-propyl-1-oxo-1,2-dihydroisoquinolin-2-yl)piperidin-1-yl]-3-{[4-(4-methylpiperazine-1-carbonyl)phenyl]amino}pyr-azine-2-carboxamide]	100 to 1000 nM	10 to 100 nM
C[C@@H]1[C@H](NC(=O)c2ccc(C3CC3)cc2F)CCCN1c1cnc(C(N)=O)c(Nc2ccc(C3(C)CCN(C4CCCC4)CC3)cc2)n1 [Example A-121, 3-{[4-(1-cyclopentyl-4-methylpiperidin-4-yl)phenyl]amino}-5-[(2R,3R)-3-(4-cyclopropyl-2-fluorobenzamido)-2-methylpiperidin-1-yl]pyrazine-2-carboxamide]	10 to 100 nM	≤ 10 nM
C[C@@H]1[C@H](NC(=O)c2ccc(C3CC3)cc2F)CCCN1c1cnc(C(N)=O)c(Nc2ccc(C(=O)N3CCN(C)CC3)cc2)n1 [Example A-122, 5-[(2R,3R)-3-(4-cyclopropyl-2-fluorobenzamido)-2-methylpiperidin-1-yl]-3-{[4-(4-methylpiperazine-1-carbonyl)phenyl]amino}pyr-azine-2-carboxamide]	100 to 1000 nM	10 to 100 nM
C[C@@H]1[C@H](NC(=O)c2ccc(C3CC3)cc2F)CCCN1c1cnc(C(N)=O)c(Nc2ccc(N3CCN(C4CCCC4)CC3)cc2)n1 [Example A-125, 3-{[4-(4-cyclopentylpiperazin-1-yl)phenyl]amino}-5-[(2R,3R)-3-(4-cyclopropyl-2-fluorobenzamido)-2-methylpiperidin-1-yl]pyrazine-2-carboxamide]	100 to 1000 nM	10 to 100 nM
C[C@@H]1[C@H](NC(=O)c2ccc(C3CC3)cc2F)CCCN1c1cnc(C(N)=O)c(Nc2cnn(C)c2)c1 [Example A-127, 5-[(2R,3R)-3-(4-cyclopropyl-2-fluorobenzamido)-2-methylpiperidin-1-yl]-3-[(1-methyl-1H-pyrazol-4-yl)amino]pyridine-2-carboxamide]	1000 to 10000 nM	100 to 1000 nM
C[C@@H]1[C@H](NC(=O)c2ccc(C3CC3)cc2F)CCCN1c1cnc(C(N)=O)c(Nc2cc(CN3CCOCC3)ns2)n1 [Example A-128, 5-[(2R,3R)-3-(4-cyclopropyl-2-fluorobenzamido)-2-methylpiperidin-1-yl]-3-{[3-(morpholin-4-ylmethyl)-1,2-thiazol-5-yl]amino}pyrazine-2-carboxamide]	100 to 1000 nM	10 to 100 nM
CN1CCN(c2ccc(Nc3nc(N4CCC[C@@H](n5ccc6cc(C7CC7)cc(F)c6c5=O)C4)cnc3C(N)=O)cc2)CC1 [Example A-133, 5-[(3R)-3-(6-cyclo-propyl-8-fluoro-1-oxo-1,2-dihydroisoquinolin-2-yl)piperidin-1-yl]-3-{[4-(4-methylpiperazin-1-yl)phenyl]amino}pyrazine-2-carboxamide]	100 to 1000 nM	10 to 100 nM
C[C@@H]1[C@H](n2ccc3cc(C4CC4)ccc3c2=O)CCCN1c1cnc(C(N)=O)c(Nc2ccc(N3CCN(C)CC3)cc2)n1 [Example A-140, 5-[(2R,3R)-3-(6-cyclopropyl-1-oxo-1,2-dihydro-isoquinolin-2-yl)-2-methylpiperidin-1-yl]-3-{[4-(4-methylpiperazin-1-yl)phenyl]amino}pyrazine-2-carboxamide]	100 to 1000 nM	10 to 100 nM
CC1(c2ccc(Nc3nc(N4CCC[C@@H](n5ccc6cc(C7CC7)ccc6c5=O)C4)cnc3C(N)=O)cc2)CCN(C2CCCC2)CC1 [Example A-141, 3-{[4-(1-cyclopentyl-4-methylpiperidin-4-yl)phenyl]amino}-5-[(3R)-3-(6-cyclopropyl-1-oxo-1,2-dihydroisoquinolin-2-yl)piperidin-1-yl]pyrazine-2-carboxamide]	10 to 100 nM	≤ 10 nM
CC(C)N1CCN(c2ccc(Nc3nc(N4CCC[C@@H](NC(=O)c5ccc(C6CC6)cc5F)[C@H]4C)cnc3C(N)=O)cc2)CC1 [Example A-149, 5-[(2R,3R)-3-(4-cyclopropyl-2-fluorobenzamido)-2-methylpiperidin-1-yl]-3-({4-[4-(propan-2-yl)piperazin-1-yl]phenyl}amino)pyrazine-2-carboxamide]	10 to 100 nM	10 to 100 nM
C[C@@H]1[C@H](NC(=O)c2ccc(C3CC3)cc2F)CCCN1c1cnc(C(N)=O)c(Nc2ccc(S(=O)(=O)N3CCN(C)CC3)cc2)n1 [Example A-156, 5-[(2R,3R)-3-(4-cyclopropyl-2-fluorobenzamido)-2-methylpiperidin-1-yl]-3-({4-[(4-methylpiperazin-1-yl)sulfonyl]phenyl}amino)pyr-azine-2-carboxamide]	100 to 1000 nM	100 to 1000 nM
